Assay results published in patent publication EP0466251A1, “Elfamycin-resistant mutants” (priority 1990, dated 1992).

How the values were obtained:
SrEF-Tu A378T = target: T1, SrEF-Tu A378T (Streptomyces ramocissimus, UniProt P29542, A379T); test: elfamycin binding visualized by non-denaturing PAGE; set-up: species or system S. ramocissimus; conditions: 25 µM aurodox, 15 minutes at 37°C; Western blotting detection
T1 construct: made in house; host or cells: E. coli JM101
Method: (§1) Susceptibility of the isolated EF-Tu to elfamycin is tested in elfamycin binding studies (G. Chinali et al., Eur. J. Biochem. 75 (1977) 55-65,) and in studies on the inhibition of EF-Tu dependent peptide synthesis (C. Glöckner and H. Wolf, cited above). Still another direct elfamycin binding assay has been developed in which the capacity of the EF-Tu protein to bind elfamycins can be visualized by a change in EF-Tu protein migration in the presence of the elfamycin by non-denaturing PAGE (polyacrylamide gel electrophoresis). Upon elfamycin binding to EF-Tu.GDP, a ternary complex is formed which is more negatively charged than the binary EF-Tu.GDP complex (B. Kraal et al, 1989, in The Guanine-Nucleotide Binding Proteins, pp 121-129, Plenum Press, New York). Consequently elfamycin binding, using e.g. aurodox, to Escherichia coli wild-type EF-Tu increases the migration distance into a non-denaturing polyacrylamide gel. Both the methods of peptide synthesis inhibition and visualization of elfamycin binding are the preferred techniques to determine the effect of elfamycin binding on EF-Tu functioning. These susceptibility assays are important if increased elfamycin resistance of EF-Tu has to be established.
(§2) For direct visualization of the elfamycin binding capacity, the mutant proteins were expressed in E. coli JM101 essentially as described in Example 3. Subsequently, a GDP stabilized S-30, S-100, or purified SrEF-Tu sample was prepared, and incubated with 25 µM aurodox for 15 minutes at 37°C. These samples, and control samples without aurodox were then subjected to non-denaturing 10% polyacrylamide gels and electrophoresed. Detection of the SrEF-Tu species was performed by the Western blotting technique using SrEF-Tu antibodies (Example 1). […] This experiment thus established that elfamycin resistance is most likely the effect of a reduced binding of the elfamycin to the mutant SrEF-Tu proteins.

SrEF-Tu A378P = target: T2, SrEF-Tu A378P (Streptomyces ramocissimus, UniProt P29542, A379P); test: as above; set-up: species or system S. ramocissimus; conditions: 25 µM aurodox, 15 minutes at 37°C; Western blotting detection
T2 construct: made in house; host or cells: E. coli JM101
T2 sequence (P29542 whole entry A379P): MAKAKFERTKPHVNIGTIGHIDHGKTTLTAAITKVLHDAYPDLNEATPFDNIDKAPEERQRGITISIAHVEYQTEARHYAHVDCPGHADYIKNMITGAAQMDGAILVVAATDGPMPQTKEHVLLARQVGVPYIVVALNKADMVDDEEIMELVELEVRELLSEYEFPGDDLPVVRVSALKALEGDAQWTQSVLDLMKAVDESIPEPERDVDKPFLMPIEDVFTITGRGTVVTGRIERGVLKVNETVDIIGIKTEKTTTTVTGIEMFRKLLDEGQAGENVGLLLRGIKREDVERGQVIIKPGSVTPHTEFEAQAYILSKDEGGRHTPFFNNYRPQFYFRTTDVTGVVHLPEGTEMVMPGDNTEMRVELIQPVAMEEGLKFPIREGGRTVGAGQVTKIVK
Method: as §1, §2

SrEF-Tu A378V = target: T3, SrEF-Tu A378V (Streptomyces ramocissimus, UniProt P29542, A379V); test: as above; set-up: species or system S. ramocissimus; conditions: 25 µM aurodox, 15 minutes at 37°C; Western blotting detection
T3 construct: made in house; host or cells: E. coli JM101
T3 sequence (P29542 whole entry A379V): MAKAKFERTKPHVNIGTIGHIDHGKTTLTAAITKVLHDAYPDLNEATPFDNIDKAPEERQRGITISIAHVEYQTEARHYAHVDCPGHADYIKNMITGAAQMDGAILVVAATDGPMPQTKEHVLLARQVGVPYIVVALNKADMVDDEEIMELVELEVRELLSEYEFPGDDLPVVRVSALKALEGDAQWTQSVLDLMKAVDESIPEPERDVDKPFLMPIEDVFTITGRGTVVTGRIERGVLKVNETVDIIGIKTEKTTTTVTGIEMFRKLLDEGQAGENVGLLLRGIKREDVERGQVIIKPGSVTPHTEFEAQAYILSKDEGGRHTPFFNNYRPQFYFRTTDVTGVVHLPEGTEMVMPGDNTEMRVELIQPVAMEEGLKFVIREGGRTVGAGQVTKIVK
Method: as §1, §2

SrEF-Tu A378F = target: T4, SrEF-Tu A378F (Streptomyces ramocissimus, UniProt P29542, A379F); test: as above; set-up: species or system S. ramocissimus; conditions: 25 µM aurodox, 15 minutes at 37°C; Western blotting detection
T4 construct: made in house; host or cells: E. coli JM101
T4 sequence (P29542 whole entry A379F): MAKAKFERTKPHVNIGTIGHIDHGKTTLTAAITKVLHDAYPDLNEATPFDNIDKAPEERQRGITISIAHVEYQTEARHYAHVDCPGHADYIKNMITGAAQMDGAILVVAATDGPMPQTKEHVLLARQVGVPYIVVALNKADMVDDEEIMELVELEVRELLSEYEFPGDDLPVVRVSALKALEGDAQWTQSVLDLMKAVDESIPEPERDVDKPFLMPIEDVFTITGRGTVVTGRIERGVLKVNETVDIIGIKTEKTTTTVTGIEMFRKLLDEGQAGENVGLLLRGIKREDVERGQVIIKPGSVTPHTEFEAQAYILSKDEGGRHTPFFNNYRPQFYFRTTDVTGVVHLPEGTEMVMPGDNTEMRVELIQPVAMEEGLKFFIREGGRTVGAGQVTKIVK
Method: as §1, §2

[1] = target: T5, wild-type S. ramocissimus EF-Tu (Streptomyces ramocissimus, UniProt P29542); test: as above; conditions: 25 µM aurodox, 15 minutes at 37°C; Western blotting detection
T5 construct: made in house; host or cells: E. coli JM101 (pUSrT1-1)
T5 sequence (P29542 whole entry): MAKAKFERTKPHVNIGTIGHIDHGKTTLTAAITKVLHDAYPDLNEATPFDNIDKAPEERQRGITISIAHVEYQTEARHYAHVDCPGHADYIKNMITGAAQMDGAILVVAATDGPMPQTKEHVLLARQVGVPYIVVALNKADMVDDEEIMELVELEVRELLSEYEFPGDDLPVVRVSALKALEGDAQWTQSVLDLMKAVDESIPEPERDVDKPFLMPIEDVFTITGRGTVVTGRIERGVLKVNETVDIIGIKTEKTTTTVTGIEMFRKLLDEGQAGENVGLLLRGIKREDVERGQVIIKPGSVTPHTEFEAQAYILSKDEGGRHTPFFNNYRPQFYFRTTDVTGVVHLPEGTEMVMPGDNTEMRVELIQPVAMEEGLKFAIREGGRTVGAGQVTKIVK
Method: as §1
For direct visualization of the elfamycin binding capacity, the mutant proteins were expressed in E. coli JM101 essentially as described in Example 3. […]

[2] = target: T6, major EF-Tu species of S. ramocissimus strain R1V (Streptomyces ramocissimus, UniProt P29542, A379V); test: direct elfamycin binding assay on S-100 extract; conditions: S-100 extract of strain R1V; 25 µM Aurodox
T6 construct: an S-100 extract was prepared from a culture of S. ramocissimus strain R1V; endogenous in cells; host or cells: S. ramocissimus strain R1V (chromosomal tuf1 replaced by the A378V allele)
T6 sequence (P29542 whole entry A379V): as the sequence (P29542 whole entry A379V) above
Method: as §2
To establish that S. ramocissimus strain R1V actually expresses the mutated Srtuf1 gene as the main EF-Tu species, an S-100 extract was prepared from a culture of S. ramocissimus strain R1V essentially as described in Example 1. Subsequently this extract was subjected to the direct elfamycin binding assay outlined in Example 6.

T1 sequence (P29542 whole entry A379T): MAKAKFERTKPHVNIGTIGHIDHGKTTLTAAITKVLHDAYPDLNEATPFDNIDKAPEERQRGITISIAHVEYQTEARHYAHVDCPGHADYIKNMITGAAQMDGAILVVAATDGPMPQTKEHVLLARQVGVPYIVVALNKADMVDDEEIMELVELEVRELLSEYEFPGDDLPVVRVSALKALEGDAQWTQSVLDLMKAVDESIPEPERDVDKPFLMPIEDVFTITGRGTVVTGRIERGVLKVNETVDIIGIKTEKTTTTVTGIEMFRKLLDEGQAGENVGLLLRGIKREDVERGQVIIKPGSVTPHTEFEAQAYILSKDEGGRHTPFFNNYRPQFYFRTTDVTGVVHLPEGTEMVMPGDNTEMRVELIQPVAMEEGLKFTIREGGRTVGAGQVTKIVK

## C/C=C\C=C\[C@@H]1O[C@](O)([C@H](CC)C(=O)NC/C=C/C=C(\C)[C@@H](OC)[C@@H](C)[C@@H]2O[C@H](/C=C/C=C/C=C(\C)C(=O)c3c(O)ccn(C)c3=O)[C@H](O)[C@@H]2O)[C@H](O)[C@H](O)C1(C)C [aurodox, N-Methylmocimycin]
SrEF-Tu A378T
  elfamycin binding (migration in non-denaturing PAGE): unaffected
SrEF-Tu A378P
  elfamycin binding (migration in non-denaturing PAGE): unaffected
SrEF-Tu A378V
  elfamycin binding (migration in non-denaturing PAGE): unaffected
SrEF-Tu A378F
  elfamycin binding (migration in non-denaturing PAGE): unaffected
[1]
  elfamycin binding (migration in non-denaturing PAGE): appears to bind
[2]
  elfamycin binding (migration in non-denaturing PAGE): unable to bind
